Measured values taken from US20190169134A1, “NOVEL CLASS OF QUINOLONE HETEROCYCLIC AROMATIC MOLECULES FOR CANCER TREATMENT” (RenoTarget Therapeutics, Inc., priority 2016, published 2019).

Key:
Format in all cases: cell-based, human
[1] = tested on: HCC827 P cells; experiment: Combination analysis of cell growth inhibition (SRB, CalcuSyn)
Method: (§1) As described in Example 2.1. Two cell lines, HCC827-P and HCC827-TR (Tarceva-resistant HCC727 cells-an EGFRi resistant cell line with MET amplification) (Wang, Pursell et al. 2013) were used in the combination study. Exponentially growing HC[…] and HCC827-TR cells were seeded into 96-wells dishes at density of 3,000 cells per well. Twenty-four hours later, the cells were exposed concurrently to serial dilution of Reno647 or Carboplatin or Camptothecin alone or in combination at a ratio of 1:50 with Carboplatin or at ratio 1:1 with Camptothecin for 3 days. Reno647 were concurrently and sequentially with paclitaxel (Taxol) at ratio of 200:1 for 6 days. For sequential exposure, the cells were treated with Reno647 for 3 days, after removal of the drug containing medium, the cells were treated with Taxol for additional 3 days, or the cells were treated by Taxol first followed by the treatment with Reno 647. After incubation for 6 days, the cell growth was measured by SRB as described previously in Example 2.1 section, and the percentages of inhibition (1-T/C) % were calculated, and data were analyzed by a PC program, CalcuSyn, Biosoft (edited by T.-C. Chou, Memorial Sloan-Kettering Cancer Center, New York, and M. P. Hayball, at Cambridge, UK, 1996). The computer-calculated combination index (CI) was used to judge the outcomes of a combination: […] It has long been accepted that chemotherapy provided some benefit for patients with non-small-cell lung cancer (NSCLC) in terms of quality of life and symptomatology as well as modest improvements in survival. […] Cell growth was determined by SRB as described above. […] Cell growth was determined by SRB as described above. […] (FIG. 5 C&D, CIs were well below 1 at effective concentration), particularly at higher concentration where Reno647 achieves its effective inhibition on […]. […] However, induction of EGFR activation mediated by Taxol may compromise activity of EGFR inhibitors. To examine our hypothesis, Taxol was combined with Reno647 in three different sequential exposures: • Combination 1: exposure of HC[…] or TR cells to Reno647+Taxol simultaneously for 6 days. • Combination 2: exposure of the cells to Reno647 first for 3 days followed by treatment with Taxol for an additional 3 days, or • Combination 3: exposure of the cells to Taxol first for 3 days followed by treatment with Reno647 for an additional 3 days. Exposure of the cells to either Reno647 or Taxol served as controls. After exposure, cell growth was determined by SRB and analyzed as described in above section.

[2] = tested on: HCC827 TR cells; experiment: as above
Method: as §1

[3] = tested on: HCC827 P and HCC827 TR cells; experiment: Reno647/Carboplatin combination, median effects (SRB, CalcuSyn)
Method: As described in Example 2.1. Two cell lines, HCC827-P and HCC827-TR (Tarceva-resistant HCC727 cells-an EGFRi resistant cell line with MET amplification) (Wang, Pursell et al. 2013) were used in the combination study. Exponentially growing HC[…] and HCC827-TR cells were seeded into 96-wells dishes at density of 3,000 cells per well. Twenty-four hours later, the cells were exposed concurrently to serial dilution of Reno647 or Carboplatin or Camptothecin alone or in combination at a ratio of 1:50 with Carboplatin or at ratio 1:1 with Camptothecin for 3 days. Reno647 were concurrently and sequentially with paclitaxel (Taxol) at ratio of 200:1 for 6 days. For sequential exposure, the cells were treated with Reno647 for 3 days, after removal of the drug containing medium, the cells were treated with Taxol for additional 3 days, or the cells were treated by Taxol first followed by the treatment with Reno 647. After incubation for 6 days, the cell growth was measured by SRB as described previously in Example 2.1 section, and the percentages of inhibition (1-T/C) % were calculated, and data were analyzed by a PC program, CalcuSyn, Biosoft (edited by T.-C. Chou, Memorial Sloan-Kettering Cancer Center, New York, and M. P. Hayball, at Cambridge, UK, 1996). The computer-calculated combination index (CI) was used to judge the outcomes of a combination: […] It has long been accepted that chemotherapy provided some benefit for patients with non-small-cell lung cancer (NSCLC) in terms of quality of life and symptomatology as well as modest improvements in survival. […] Cell growth was determined by SRB as described above.

[4] = HCC827P, ratio 200:1, 3 days + 3 days
[5] = HCC827TR, ratio 200:1, 3 days + 3 days

C#Cc1cccc(Nc2ncnc3cc(OCCOC)c(NC(=O)c4ccc(F)c([N+](=O)[O-])c4)cc23)c1 [Reno647, 4-Fluoro-N-[4-(3-ethynyl-phenylamino)-7-(2-methoxy-ethoxy)-quinazolin-6-yl]-3-nitro-benzamide]
combination index (CI), Reno647 with Camptothecin ([1]; HCC827 P, ratio 1:1, concurrent, 3 days, at effective concentration): below 1
combination index (CI), Reno647 with Carboplatin ([1]; HCC827 P, ratio 1:50, concurrent, 6 days, at effective concentrations): below 1
combination index (CI), Reno647 first followed by Taxol [1, 4]: > 1
combination index (CI), Taxol first followed by Reno647 [1, 4]: < 1
combination index (CI), Reno647 and Taxol concurrently ([1]; HCC827P, ratio 200:1, 6 days): < 1
combination index (CI), Reno647 with Camptothecin ([2]; HCC827 TR, ratio 1:1, concurrent, 3 days, at effective concentration): below 1
combination index (CI), Reno647 with Carboplatin ([2]; HCC827 TR, ratio 1:50, concurrent, 6 days, at effective concentrations): below 1
combination index (CI), Reno647 first followed by Taxol [2, 5]: > 1
combination index (CI), Taxol first followed by Reno647 [2, 5]: < 1
combination index (CI), Reno647 and Taxol concurrently ([2]; HCC827TR, ratio 200:1, 6 days): < 1
dose reduction in combination ([3]; Reno647:Carboplatin 1:50): > 10 fold
median effects, two drugs combined ([3]; Reno647:Carboplatin 1:50, concurrent, cell line not stated): 0.067 µM
median effects, drug alone ([3]; single agent, cell line not stated): 0.697 µM
